# Experimental data as given in patent publication US8501805B2, “Substituted alpha-L-bicyclic nucleosides” (Isis Pharmaceuticals, Inc., priority 2008, dated 2013).
# [αh] = substituted alpha-L-bicyclic nucleoside, publication subscript αh; [αj] = substituted alpha-L-bicyclic nucleoside, publication subscript αj; [αl] = substituted alpha-L-bicyclic nucleoside, publication subscript αl; [αm] = substituted alpha-L-bicyclic nucleoside, publication subscript αm; [αg] = code of the source, not defined here; d = 2'-deoxy (DNA)
# Experiment: 12mer Tm study
# Format: binding
# Conditions: for Tm (° C.): all linkages phosphodiester; for ΔTm/mod (° C.): change in Tm per modification
# Source text: All internucleoside linkages are phosphodiester and all nucleosides not followed by a subscript are 2′-deoxyribonucleosides. The nucleosides followed by a subscript are defined below.
Substance,Tm (° C.),ΔTm/mod (° C.)
"07/449245: 12mer GCGTTUαjTαjTTGCT, all linkages phosphodiester (GCGTTUTTTGCT; sugars from the 5' end d5 [αj]2 d5, all phosphodiester, methylation of C not given here)",47.1 °C,+1.0 °C
"07/438704: 12mer GCGTTUTTTGCT, all 2′-deoxyribonucleosides, all linkages phosphodiester (DNA, all phosphodiester, methylation of C not given here) [reference compound]",46.7 °C,+0.0 °C
"07/454308: 12mer GCGTTUαmTαmTTGCT, all linkages phosphodiester (GCGTTUTTTGCT; sugars from the 5' end d5 [αm]2 d5, all phosphodiester, methylation of C not given here)",55.2 °C,+4.8 °C
"07/454306: 12mer GCGTTUαlTαlTTGCT, all linkages phosphodiester (GCGTTUTTTGCT; sugars from the 5' end d5 [αl]2 d5, all phosphodiester, methylation of C not given here) [reference compound]",45.6 °C,+4.6 °C
"07/449247: 12mer GCGTTUαhTαhTTGCT, all linkages phosphodiester (GCGTTUTTTGCT; sugars from the 5' end d5 [αh]2 d5, all phosphodiester, methylation of C not given here)",53.7 °C,+4.1 °C
"07/449246: 12mer GCGTTUαhTTTGCT, all linkages phosphodiester (GCGTTUTTTGCT; sugars from the 5' end d5 [αh]1 d6, all phosphodiester, methylation of C not given here)",49.0 °C,+3.4 °C
"07/449244: 12mer GCGTTUαjTTTGCT, all linkages phosphodiester (GCGTTUTTTGCT; sugars from the 5' end d5 [αj]1 d6, all phosphodiester, methylation of C not given here)",46.7 °C,+1.1 °C
"07/454307: 12mer GCGTTUαmTTTGCT, all linkages phosphodiester (GCGTTUTTTGCT; sugars from the 5' end d5 [αm]1 d6, all phosphodiester, methylation of C not given here)",51.3 °C,+5.5 °C
"07/454310: 12mer GCGTTUαgTαgTTGCT, all linkages phosphodiester (GCGTTUTTTGCT; sugars from the 5' end d5 [αg]2 d5, all phosphodiester, methylation of C not given here)",53.6 °C,+4.2 °C
"07/438711: 12mer GCGTTUαlTTTGCT, all linkages phosphodiester (GCGTTUTTTGCT; sugars from the 5' end d5 [αl]1 d6, all phosphodiester, methylation of C not given here) [reference compound]",50.2 °C,+4.6 °C
"07/454309: 12mer GCGTTUαgTTTGCT, all linkages phosphodiester (GCGTTUTTTGCT; sugars from the 5' end d5 [αg]1 d6, all phosphodiester, methylation of C not given here)",49.7 °C,+4.2 °C
